In paper PMC5120204, “Identification of an orally active small-molecule PTHR1 agonist for the treatment of hypoparathyroidism” (Nature Communications, 2016):

Tests used:
fetal rat long bones = assay: Fetal rat long bone cultures, 45Ca release; format: cell-based; settings: organ culture
Protocol: Bone-resorbing activity was assessed by fetal rat long bone cultures. ^45CaCl2 (1,480 kBq, PerkinElmer) was subcutaneously injected into a pregnant Crl:CD(SD) rat (Charles River Laboratories) on its 18th day of gestation. At 48 h after the injection, the pregnant rat was euthanized, and the ulnae and radial bones were isolated from euthanized fetal rats. The long bones were placed on nylon mesh and covered with paraffin paper, and a floating culture in BGJb medium (Life Technologies) containing antibiotic–antimycotic (× 1, Life Technologies) was carried out for 3 days at 37 °C in 95% air and 5% CO2 atmosphere. On the 4th day, the medium was replaced with fresh BGJb medium containing hPTH(1–34) (1 nmol l^−1 to 1 μmol l^−1) or PCO371 (0.1 nmol l^−1 to 3 μmol l^−1) or vehicle (0.1% DMSO and 0.1 mmol l^−1 acetic acid at final concentration) and cultured for a further 4 days at 37 °C. Bone samples were then treated with 10% TCA (500 μl/bone) overnight at 37 °C. Radioactivity of the bone and the medium samples was measured. Four to five long bones were used for each individual dose. ^45Ca release (%) was calculated by the following formula (equation (4)): […]

OVX rats = assay: Bone histomorphometry of lumbar vertebra in OVX rats; format: in vivo, rat
Protocol: OVX was carried out in 32-week-old female Crl:CD (SD) rats (Charles River Laboratories). Twelve weeks after surgery, lumbar vertebral BMD (L3–L5) was measured in vivo by dual-energy X-ray absorptiometry (DXA) using a DCS-600EX-IIIR bone densitometer (Hitachi Aloka Medical), and the rats were divided into five groups, each with a similar mean value of BMD and body weight. Sample sizes were determined based on previous experiments with hPTHs and a published study with ibandronate and eldecalcitriol in our laboratories[42] (n=7–10). Then, OVX rats were treated once daily intravenously (vehicle or PCO371 at 3 or 10 mg kg^−1) or orally (vehicle or PCO371 at 30 mg kg^−1) or subcutaneously [vehicle or hPTH(1–34) at 0.9 nmol kg^−1] for 12 weeks. Ten to twelve OVX rats were assigned to each dose group. Nine rats were assigned to the sham-operated control group and were treated with vehicle for PCO371. Ten per cent DMSO (Wako Pure Chemical Industries)/10% Kolliphor EL (Sigma-Aldrich) in 10% hydroxypropyl-β-cyclodextrin (HPCD; Nihon Shokuhin Kako)/0.752% glycine (Wako Pure Chemical Industries) buffer was used as vehicle for PCO371, and phosphate-citrate buffer (pH 6.0) was used as vehicle for hPTH(1–34). To label bone-forming surfaces, tetracycline ([…], Nippon Zenyaku Kogyo) was subcutaneously injected on Day 78 and calcein (8 mg kg^−1, Dōjindo Laboratories) was subcutaneously injected on day 83. Under isoflurane anaesthesia, jugular vein blood was collected immediately before and at 1, 2, 6, 10 and 24 h after administration on day 82 to measure plasma concentration of PCO371 or on day 84 to measure serum Ca levels (o-CPC method, Wako Pure Chemical Industries). Urine was collected for 24 h from metabolic cages on days 84–85 to measure urinary collagen type 1 cross-linked C-telopeptide (CTX) by using the RatLaps ELISA System (Immunodiagnostic Systems). Under isoflurane anaesthesia, blood was collected on day 85 from the abdominal aorta to measure serum osteocalcin level by using the Rat Osteocalcin ELISA System (GE Healthcare). The lumbar spine and bilateral femurs were excised after 12 weeks of treatment. The first lumbar vertebra (L1), 3rd to 5th lumbar vertebrae (L3–L5), the right femur, and the right tibia were preserved in 70% ethanol to measure bone histomorphometry and BMD (DCS-600EX; Hitachi Aloka Medical). Measurement of bone histomorphometry was performed by the Ito Bone Histomorphometry Institute (Niigata, Japan). The second lumbar vertebra (L2) was wrapped in saline-soaked gauze and stored at −80 °C until measurement. Ultimate compressive strength (N) of the L2 vertebra was measured by using a mechanical testing machine (TK-252C; Muromachi Kikai).

rat PTHR2 = biological target: T1, rat PTHR2 (Rattus norvegicus, UniProt P70555); assay: cAMP production assay in COS-7 cells expressing rat PTHR2; format: cell-based
T1 construct: expressed in transfected cells; host or cells: COS-7 (transient)
T1 sequence (P70555 25-546): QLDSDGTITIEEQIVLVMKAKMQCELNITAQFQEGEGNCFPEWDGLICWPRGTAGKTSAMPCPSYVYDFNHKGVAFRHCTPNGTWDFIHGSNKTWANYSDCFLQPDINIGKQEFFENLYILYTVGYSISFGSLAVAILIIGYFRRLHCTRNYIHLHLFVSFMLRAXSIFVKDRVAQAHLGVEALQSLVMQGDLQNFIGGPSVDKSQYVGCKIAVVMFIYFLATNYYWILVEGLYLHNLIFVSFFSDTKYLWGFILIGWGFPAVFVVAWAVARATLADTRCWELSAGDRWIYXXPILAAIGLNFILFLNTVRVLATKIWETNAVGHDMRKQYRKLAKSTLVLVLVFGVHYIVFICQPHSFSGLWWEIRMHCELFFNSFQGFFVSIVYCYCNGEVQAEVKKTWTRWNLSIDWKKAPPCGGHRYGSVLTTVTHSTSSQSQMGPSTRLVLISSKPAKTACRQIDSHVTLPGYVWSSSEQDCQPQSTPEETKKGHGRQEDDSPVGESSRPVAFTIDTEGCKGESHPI
Protocol: (§1) COS-7 cells (ATCC) were seeded into a 96-well flat-bottomed plate (1.4 × 10^4 cells per 100 μl per well) and incubated overnight. The next day, the COS-7 cells were transfected by adding 10 μl of a mixture of hPTHR1, hPTHR2 or mutant hPTHR1 plasmid, rat PTHR1 or rat PTHR2 plasmid, or empty vector (0.1 μg per well), FuGENE HD Transfection Reagent (0.4 μl per well, Promega), and Opti-MEM I Reduced Serum Medium (10 μl per well, Life Technologies) to each well. […] The plate was placed in a 37 °C constant-temperature water bath for 20 min to allow the reaction to proceed. After incubation, the liquid in the wells was discarded, the wells were washed with the assay medium (100 μl per well), and the plate was frozen on dry ice. Next, 40 μl of 50 mmol l^−1 HCl was added to each well, and the plate was stored in a freezer set at ≤−20 °C. The cAMP concentrations were measured by using a cAMP EIA kit (GE Healthcare). EC50 values were determined from three independent experiments in duplicate by a non-linear regression Emax model (JMP ver.9.0.2, SAS Institute). The geometric mean of the EC50 values obtained in three experiments in duplicate was calculated using Microsoft Office Excel 2007. […]

hPTHR2 = biological target: T2, hPTHR2 (Homo sapiens, UniProt P49190); assay: cAMP production assay in COS-7 cells expressing hPTHR2; format: cell-based; settings: COS-7 cells expressing human PTHR2
T2 construct: expressed in transfected cells; host or cells: COS-7 (transient)
T2 sequence (P49190 25-550): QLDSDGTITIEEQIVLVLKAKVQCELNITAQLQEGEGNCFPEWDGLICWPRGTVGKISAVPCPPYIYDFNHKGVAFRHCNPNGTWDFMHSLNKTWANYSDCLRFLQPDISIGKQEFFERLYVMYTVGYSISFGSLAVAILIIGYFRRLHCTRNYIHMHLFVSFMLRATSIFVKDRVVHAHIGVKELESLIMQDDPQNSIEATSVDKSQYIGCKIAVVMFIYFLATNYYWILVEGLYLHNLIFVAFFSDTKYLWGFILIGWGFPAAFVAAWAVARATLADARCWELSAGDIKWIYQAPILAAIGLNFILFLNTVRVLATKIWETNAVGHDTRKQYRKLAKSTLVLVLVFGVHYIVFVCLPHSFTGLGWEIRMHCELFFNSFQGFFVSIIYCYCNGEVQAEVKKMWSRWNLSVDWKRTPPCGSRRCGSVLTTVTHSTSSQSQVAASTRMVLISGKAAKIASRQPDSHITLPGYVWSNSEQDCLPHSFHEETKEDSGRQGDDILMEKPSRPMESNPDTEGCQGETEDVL
Protocol: as §1

[1] = i.v. 3 mg kg-1 once daily 12 weeks
[2] = i.v. 10 mg kg-1 once daily 12 weeks
[3] = p.o. 30 mg kg-1 once daily 12 weeks

Q: Which results are given for `Cc1cc(N2C(=O)NC(=O)C2(C)C)cc(C)c1CCS(=O)(=O)N1CCC2(CC1)N=C(c1ccc(OC(F)(F)F)cc1)NC2=O` [PCO371, 1-{3,5-dimethyl-4-[2-({4-oxo-2-[4-(trifluoromethoxy)phenyl]-1,3,8-triazaspiro[4.5]dec-1-en-8-yl}sulfonyl)ethyl]phenyl}-5,5-dimethylimidazolidine-2,4-dione]?
A: concentration able to stimulate 45Ca release from prelabeled bones (fetal rat long bones): ≥ 1 µmol/L; BFR/BS (Bone formation rate/Bone surface) (OVX rats; [1]): 0.144 ± 0.013 mm3 per mm2 per year; BRs.R (OVX rats; [1]): 0.039 ± 0.005 mm2 per mm2 per year; BV/TV (Bone volume/Tissue volume) (OVX rats; [1]): 23.2 ± 1.9%; ES/BS (Eroded surface/Bone surface) (OVX rats; [1]): 27.6 ± 2.5%; MAR (Mineral apposition rate) (OVX rats; [1]): 1.84 ± 0.07 µm per day; N.Ob/BS (Number of osteoblasts/Bone surface) (OVX rats; [1]): 11.36 ± 0.71 N per mm; N.Oc/BS (Number of osteoclasts/Bone surface) (OVX rats; [1]): 2.55 ± 0.22 N per mm; OV/TV (Osteoid volume/Tissue volume) (OVX rats; [1]): 0.465 ± 0.040%; ObS/BS (Osteoblast surface/Bone surface) (OVX rats; [1]): 14.98 ± 1.07%; OcS/BS (Osteoclast surface/Bone surface) (OVX rats; [1]): 8.49 ± 0.79%; Tb. N (Trabecular number) (OVX rats; [1]): 3.07 ± 0.18 N per mm; Tb. Sp (Trabecular separation) (OVX rats; [1]): 264 ± 24 µm; Tb. Th (Trabecular thickness) (OVX rats; [1]): 75.1 ± 4.1 µm; BFR/BS (Bone formation rate/Bone surface) (OVX rats; [2]): 0.275 ± 0.022 mm3 per mm2 per year; BRs.R (OVX rats; [2]): 0.071 ± 0.008 mm2 per mm2 per year; BV/TV (Bone volume/Tissue volume) (OVX rats; [2]): 20.1 ± 1.1%; ES/BS (Eroded surface/Bone surface) (OVX rats; [2]): 33.0 ± 1.6%; MAR (Mineral apposition rate) (OVX rats; [2]): 2.22 ± 0.06 µm per day; N.Ob/BS (Number of osteoblasts/Bone surface) (OVX rats; [2]): 16.09 ± 1.72 N per mm; N.Oc/BS (Number of osteoclasts/Bone surface) (OVX rats; [2]): 3.60 ± 0.20 N per mm; OV/TV (Osteoid volume/Tissue volume) (OVX rats; [2]): 0.690 ± 0.076%; ObS/BS (Osteoblast surface/Bone surface) (OVX rats; [2]): 24.64 ± 2.70%; OcS/BS (Osteoclast surface/Bone surface) (OVX rats; [2]): 11.69 ± 0.70%; Tb. N (Trabecular number) (OVX rats; [2]): 2.54 ± 0.11 N per mm; Tb. Sp (Trabecular separation) (OVX rats; [2]): 322 ± 18 µm; Tb. Th (Trabecular thickness) (OVX rats; [2]): 79.2 ± 2.7 µm; BFR/BS (Bone formation rate/Bone surface) (OVX rats; [3]): 0.285 ± 0.023 mm3 per mm2 per year; BRs.R (OVX rats; [3]): 0.057 ± 0.006 mm2 per mm2 per year; BV/TV (Bone volume/Tissue volume) (OVX rats; [3]): 20.1 ± 1.4%; ES/BS (Eroded surface/Bone surface) (OVX rats; [3]): 39.7 ± 1.6%; MAR (Mineral apposition rate) (OVX rats; [3]): 2.28 ± 0.08 µm per day; N.Ob/BS (Number of osteoblasts/Bone surface) (OVX rats; [3]): 17.55 ± 1.43 N per mm; N.Oc/BS (Number of osteoclasts/Bone surface) (OVX rats; [3]): 4.30 ± 0.27 N per mm; OV/TV (Osteoid volume/Tissue volume) (OVX rats; [3]): 0.794 ± 0.085%; ObS/BS (Osteoblast surface/Bone surface) (OVX rats; [3]): 25.14 ± 2.09%; OcS/BS (Osteoclast surface/Bone surface) (OVX rats; [3]): 13.60 ± 0.69%; Tb. N (Trabecular number) (OVX rats; [3]): 2.64 ± 0.14 N per mm; Tb. Sp (Trabecular separation) (OVX rats; [3]): 315 ± 24 µm; Tb. Th (Trabecular thickness) (OVX rats; [3]): 76.0 ± 3.1 µm; cAMP production (rat PTHR2): did not stimulate cAMP production; cAMP production (hPTHR2): did not stimulate cAMP production
